Source: ChEMBL document CHEMBL3991601, “The target landscape of clinical kinase drugs” (Science, 2017)
The source made the active and inactive calls.

Legend:
[1] = molecular target: Mitogen-activated protein kinase 8 (Homo sapiens, UniProt P45983)
LIM domain kinase 2 = LIM domain kinase 2 (Homo sapiens, UniProt P53671)
Pyridoxal kinase = molecular target: T1, Pyridoxal kinase (Homo sapiens, UniProt O00764)
T1 sequence (O00764 whole entry): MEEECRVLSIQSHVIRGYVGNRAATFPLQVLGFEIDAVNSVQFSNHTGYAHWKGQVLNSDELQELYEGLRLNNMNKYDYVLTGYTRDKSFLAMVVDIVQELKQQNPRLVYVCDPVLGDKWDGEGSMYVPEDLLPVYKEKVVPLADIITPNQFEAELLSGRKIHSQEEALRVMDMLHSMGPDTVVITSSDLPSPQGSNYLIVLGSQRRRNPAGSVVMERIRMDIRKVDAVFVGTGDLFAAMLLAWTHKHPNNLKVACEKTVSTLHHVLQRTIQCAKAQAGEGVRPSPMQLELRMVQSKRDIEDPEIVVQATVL

[2] = molecular target: T2, Serine/threonine-protein kinase TAO2 (Homo sapiens, UniProt Q9UL54)
T2 sequence (Q9UL54 whole entry): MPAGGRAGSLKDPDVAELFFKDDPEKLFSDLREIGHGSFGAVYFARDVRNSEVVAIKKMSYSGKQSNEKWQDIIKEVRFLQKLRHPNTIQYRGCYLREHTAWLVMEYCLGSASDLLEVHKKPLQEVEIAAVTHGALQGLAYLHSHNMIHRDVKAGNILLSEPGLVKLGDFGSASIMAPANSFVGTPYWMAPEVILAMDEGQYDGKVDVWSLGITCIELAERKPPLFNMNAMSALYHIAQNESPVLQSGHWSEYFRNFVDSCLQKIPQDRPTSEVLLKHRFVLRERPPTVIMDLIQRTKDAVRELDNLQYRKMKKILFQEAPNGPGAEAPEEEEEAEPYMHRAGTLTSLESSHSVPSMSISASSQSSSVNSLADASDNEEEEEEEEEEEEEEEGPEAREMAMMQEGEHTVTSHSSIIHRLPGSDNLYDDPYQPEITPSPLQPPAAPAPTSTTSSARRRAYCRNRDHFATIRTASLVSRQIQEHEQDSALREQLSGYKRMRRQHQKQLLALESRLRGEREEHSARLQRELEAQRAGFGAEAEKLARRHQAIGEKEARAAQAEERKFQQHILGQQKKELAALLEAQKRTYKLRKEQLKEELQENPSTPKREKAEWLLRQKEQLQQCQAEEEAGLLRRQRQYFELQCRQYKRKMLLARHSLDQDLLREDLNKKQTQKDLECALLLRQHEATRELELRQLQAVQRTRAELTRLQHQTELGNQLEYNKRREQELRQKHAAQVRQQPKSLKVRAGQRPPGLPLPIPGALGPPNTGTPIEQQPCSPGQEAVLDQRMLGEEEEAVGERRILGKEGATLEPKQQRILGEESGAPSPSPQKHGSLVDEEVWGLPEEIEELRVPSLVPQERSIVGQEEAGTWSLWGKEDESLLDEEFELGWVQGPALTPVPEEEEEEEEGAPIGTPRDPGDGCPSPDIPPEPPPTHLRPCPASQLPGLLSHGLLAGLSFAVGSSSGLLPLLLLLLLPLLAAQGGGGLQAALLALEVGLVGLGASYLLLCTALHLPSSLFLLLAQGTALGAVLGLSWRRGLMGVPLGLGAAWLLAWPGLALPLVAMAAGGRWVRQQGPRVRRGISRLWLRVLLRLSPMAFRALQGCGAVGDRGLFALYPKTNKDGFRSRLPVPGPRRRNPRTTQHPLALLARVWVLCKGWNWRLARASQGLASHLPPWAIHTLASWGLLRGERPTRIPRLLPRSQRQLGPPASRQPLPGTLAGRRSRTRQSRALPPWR

[3] = molecular target: RAC-gamma serine/threonine-protein kinase (Homo sapiens, UniProt Q9Y243)
Sequence of RAC-gamma serine/threonine-protein kinase (Q9Y243 whole entry): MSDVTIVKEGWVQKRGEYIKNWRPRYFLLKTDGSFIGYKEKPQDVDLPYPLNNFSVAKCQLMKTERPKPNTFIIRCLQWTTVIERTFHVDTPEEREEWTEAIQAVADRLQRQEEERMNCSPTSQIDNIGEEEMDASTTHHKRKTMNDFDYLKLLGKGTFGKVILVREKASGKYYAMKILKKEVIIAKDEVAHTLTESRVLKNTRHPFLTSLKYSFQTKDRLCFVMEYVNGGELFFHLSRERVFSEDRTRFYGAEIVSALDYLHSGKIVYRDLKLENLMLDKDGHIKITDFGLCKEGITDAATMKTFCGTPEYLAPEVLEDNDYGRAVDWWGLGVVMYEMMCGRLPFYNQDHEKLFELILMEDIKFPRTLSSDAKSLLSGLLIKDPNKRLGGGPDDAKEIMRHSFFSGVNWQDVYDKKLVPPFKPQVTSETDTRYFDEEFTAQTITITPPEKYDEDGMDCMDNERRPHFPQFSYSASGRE

[4] = molecular target: T3, Peroxisomal acyl-coenzyme A oxidase 3 (Homo sapiens, UniProt O15254)
T3 sequence (O15254 whole entry): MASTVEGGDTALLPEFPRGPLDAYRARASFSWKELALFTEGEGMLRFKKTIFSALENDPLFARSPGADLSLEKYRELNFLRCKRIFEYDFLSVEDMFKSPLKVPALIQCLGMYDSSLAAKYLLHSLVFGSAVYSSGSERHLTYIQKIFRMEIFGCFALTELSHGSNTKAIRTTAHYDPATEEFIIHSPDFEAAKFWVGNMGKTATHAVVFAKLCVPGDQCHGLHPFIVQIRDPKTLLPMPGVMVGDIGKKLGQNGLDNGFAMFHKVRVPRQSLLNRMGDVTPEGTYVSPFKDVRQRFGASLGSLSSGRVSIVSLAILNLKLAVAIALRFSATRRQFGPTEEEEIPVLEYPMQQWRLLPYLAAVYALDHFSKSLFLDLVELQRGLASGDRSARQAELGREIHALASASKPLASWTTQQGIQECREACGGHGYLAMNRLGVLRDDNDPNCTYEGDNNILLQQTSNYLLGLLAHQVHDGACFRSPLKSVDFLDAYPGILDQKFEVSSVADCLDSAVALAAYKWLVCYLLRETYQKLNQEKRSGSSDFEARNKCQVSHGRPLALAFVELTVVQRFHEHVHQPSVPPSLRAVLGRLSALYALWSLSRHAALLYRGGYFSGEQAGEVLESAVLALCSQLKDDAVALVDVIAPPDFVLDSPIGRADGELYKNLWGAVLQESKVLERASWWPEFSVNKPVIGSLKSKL

[5] = molecular target: S-adenosylmethionine synthase isoform type-2 (Homo sapiens, UniProt P31153)
Sequence of S-adenosylmethionine synthase isoform type-2 (P31153 whole entry, canonical isoform): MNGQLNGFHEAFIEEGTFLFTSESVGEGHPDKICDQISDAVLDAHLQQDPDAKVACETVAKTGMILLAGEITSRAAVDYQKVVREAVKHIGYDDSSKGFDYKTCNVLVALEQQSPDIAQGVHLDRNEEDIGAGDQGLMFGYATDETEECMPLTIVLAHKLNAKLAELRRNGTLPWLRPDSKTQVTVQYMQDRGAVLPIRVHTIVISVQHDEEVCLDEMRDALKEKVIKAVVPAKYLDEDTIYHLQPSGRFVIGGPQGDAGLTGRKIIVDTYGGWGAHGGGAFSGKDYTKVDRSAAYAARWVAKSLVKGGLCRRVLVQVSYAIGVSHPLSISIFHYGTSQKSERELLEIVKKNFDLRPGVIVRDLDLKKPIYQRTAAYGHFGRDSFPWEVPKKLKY

[6] = molecular target: T4, Ras-related protein Rab-27A (Homo sapiens, UniProt P51159)
T4 sequence (P51159 whole entry): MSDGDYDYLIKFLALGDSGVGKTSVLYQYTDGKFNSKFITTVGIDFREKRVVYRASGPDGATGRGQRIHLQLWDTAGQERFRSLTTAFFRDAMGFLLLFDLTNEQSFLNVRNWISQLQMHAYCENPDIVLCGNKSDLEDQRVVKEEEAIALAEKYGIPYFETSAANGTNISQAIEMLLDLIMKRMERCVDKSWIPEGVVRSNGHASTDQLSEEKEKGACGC
Note: in the data inactive means no Kd found up to 30 µM.

Sequence of LIM domain kinase 2 (P53671 whole entry, the tested form may be a part): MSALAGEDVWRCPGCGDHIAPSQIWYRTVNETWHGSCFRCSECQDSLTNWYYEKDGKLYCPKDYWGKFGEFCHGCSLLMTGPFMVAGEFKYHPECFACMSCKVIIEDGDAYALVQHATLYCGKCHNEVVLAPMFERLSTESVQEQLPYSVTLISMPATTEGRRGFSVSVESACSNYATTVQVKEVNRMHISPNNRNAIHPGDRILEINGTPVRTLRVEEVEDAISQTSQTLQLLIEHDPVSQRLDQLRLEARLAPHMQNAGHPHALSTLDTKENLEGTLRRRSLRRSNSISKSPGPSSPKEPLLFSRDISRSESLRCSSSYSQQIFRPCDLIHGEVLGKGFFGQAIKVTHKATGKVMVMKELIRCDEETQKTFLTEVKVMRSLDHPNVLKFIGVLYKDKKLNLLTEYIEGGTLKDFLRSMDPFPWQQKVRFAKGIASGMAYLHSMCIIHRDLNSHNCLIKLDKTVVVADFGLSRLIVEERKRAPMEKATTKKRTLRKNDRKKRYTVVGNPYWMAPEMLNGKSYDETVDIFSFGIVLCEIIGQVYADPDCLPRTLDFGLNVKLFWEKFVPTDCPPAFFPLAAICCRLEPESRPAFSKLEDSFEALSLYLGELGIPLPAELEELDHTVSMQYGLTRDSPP
Sequence of Mitogen-activated protein kinase 8 (P45983 whole entry, the tested form may be a part): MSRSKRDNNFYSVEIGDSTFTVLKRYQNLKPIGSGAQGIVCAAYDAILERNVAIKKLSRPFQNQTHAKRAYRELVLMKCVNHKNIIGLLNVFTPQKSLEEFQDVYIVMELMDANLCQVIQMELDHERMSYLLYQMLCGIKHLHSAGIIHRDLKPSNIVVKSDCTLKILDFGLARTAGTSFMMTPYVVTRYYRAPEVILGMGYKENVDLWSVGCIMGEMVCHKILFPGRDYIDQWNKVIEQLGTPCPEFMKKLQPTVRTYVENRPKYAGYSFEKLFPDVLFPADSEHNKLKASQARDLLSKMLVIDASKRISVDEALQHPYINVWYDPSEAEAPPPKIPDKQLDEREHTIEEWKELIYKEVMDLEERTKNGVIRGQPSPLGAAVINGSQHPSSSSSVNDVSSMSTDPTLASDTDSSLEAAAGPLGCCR

Structure (SMILES) | Kd [1] | Kd (LIM domain kinase 2) | Kd (Pyridoxal kinase) | Kd [2] | Kd [3] | Kd [4] | Kd [5] | Kd [6]
C[C@@H]1COC(Nc2ccc3ncnc(Nc4ccc(OCc5nccs5)c(Cl)c4)c3c2)=N1 [VARLITINIB] | > 30 µM (inactive) | > 30 µM (inactive) | > 30 µM (inactive) | > 30 µM (inactive) | > 30 µM (inactive) | > 30 µM (inactive) | > 30 µM (inactive) | > 30 µM (inactive)
Cc1c(NC(=O)OC[C@@H]2COCCN2)cn2ncnc(Nc3ccc4c(cnn4Cc4cccc(F)c4)c3)c12 [AC-480] | > 30 µM (inactive) | > 30 µM (inactive) | > 30 µM (inactive) | > 30 µM (inactive) | > 30 µM (inactive) | > 30 µM (inactive) | > 30 µM (inactive) | > 30 µM (inactive)
COc1ccc(-c2ccc3ncc4c(c3c2)n(-c2ccc(N3CCNCC3)c(C(F)(F)F)c2)c(=O)n4C)cn1 [BGT-226 FREE BASE] | > 30 µM (inactive) | > 30 µM (inactive) | > 30 µM (inactive) | > 30 µM (inactive) | > 30 µM (inactive) | > 30 µM (inactive) | > 30 µM (inactive) | > 30 µM (inactive)
Cc1cc(Nc2nc(N[C@@H](C)c3ncc(F)cn3)ncc2Cl)n[nH]1 [AZD-1480] | > 30 µM (inactive) | > 30 µM (inactive) | > 30 µM (inactive) | > 30 µM (inactive) | > 30 µM (inactive) | > 30 µM (inactive) | > 30 µM (inactive) | > 30 µM (inactive)
CCc1cc2c(cc1N1CCC(N3CCOCC3)CC1)C(C)(C)c1[nH]c3cc(C#N)ccc3c1C2=O [ALECTINIB] | > 30 µM (inactive) | > 30 µM (inactive) | > 30 µM (inactive) | > 30 µM (inactive) | > 30 µM (inactive) | 2.6 µM (active) | > 30 µM (inactive) | > 30 µM (inactive)
O=S(=O)(c1cccc2c(O)nccc12)N1CCCNCC1 [HYDROXYFASUDIL] | > 30 µM (inactive) | > 30 µM (inactive) | > 30 µM (inactive) | > 30 µM (inactive) | > 30 µM (inactive) | > 30 µM (inactive) | > 30 µM (inactive) | > 30 µM (inactive)
